The nature of assay [1]: microbe, parasite or virus in culture. To be noted: Mycobacterium tuberculosis, 96 h, read-out: pIC50 (converted).
The nature of assay [2]: microbe, parasite or virus in culture. Particulars: Mycobacterium tuberculosis, 72 h, read-out: pIC50 (converted).

Molecules are shown by their SMILES. Where only a bound is given, the exact number is not on record here.

Turning to `CC1CCCN(CC(=O)Nc2ccccc2C(N)=O)C1` (stereo unspecified), the IC50 in assay [1] was above 501 µM; in assay [2] it was 248 µM.

Take `O=C(c1ncoc1C1CC1)N1CCCN(CCCc2ccccc2)CC1`: the IC50 in assay [1] and in assay [2] was above 50.1 µM throughout.

Take `CN(C)c1ccc(C(=O)N2CCCC2c2cnn(C)c2)nn1` (stereo unspecified): the IC50 in assay [1] and in assay [2] was above 50.1 µM in each case.

In the case of `CC(C)(C)OCCOc1ccc(OCCO)cc1`, the IC50 in assay [1] is 161 µM; in assay [2], 101 µM.

For `CCN(C)c1ccc(CNC(=O)CCn2cc(C)cn2)cc1F`, the IC50 in assay [1] and in assay [2] was above 50.1 µM each time.

For the compound `CSC1=Nc2c(cnn2-c2cccc(Cl)c2)C2=NCCCN12`, the IC50 in assay [1] was 28.3 µM; in assay [2] it was 5.78 µM.

For `Cn1nc(C2CCCN(Cc3cc(F)ccc3F)C2)c2nccnc21` (stereo unspecified), the IC50 in assay [1] and in assay [2] was above 50.1 µM in each case.

Turning to `CCCOc1cc(C)ccc1NC(=O)Cn1cnnn1`, the IC50 in assay [1] was above 501 µM; in assay [2], 273 µM.

Take `CC(C)c1ccc(C(N)CNS(C)(=O)=O)cc1` (stereo unspecified): the results for the IC50 in assay [1] and in assay [2] were 268 µM and 202 µM, respectively.

Take `CCCn1nnnc1NCc1ccc(C)s1`: the IC50 in assay [1] was 51.8 µM; in assay [2], 64.7 µM.

Turning to `CCNC(=O)CNc1cc(C)c(Cl)cc1OC`, the figures for the IC50 in assay [1] and in assay [2] were above 501 µM and 135 µM, respectively.

For `CCCn1c(O)nnc1SCc1cccc(OC)n1`, the IC50 in assay [1] was 436 µM; in assay [2], 256 µM.

Consider `COc1ccccc1C(O)CNc1cccc(C)n1` (stereo unspecified), for which the IC50 is 136 µM in assay [1] and above 501 µM in assay [2].

Take `CN(C)c1nccc(CNc2ccc(C#N)nc2)n1`: the IC50 in assay [1] was 249 µM; in assay [2], 128 µM.

`OC1CCN(Cc2ccc3c(c2)CCC3)C1` (stereo unspecified): the IC50 was above 501 µM in assay [1] and 213 µM in assay [2].

On to `Cc1ccc(C(=O)NCc2ccc3c(c2)OCCO3)o1`, for which the IC50 in assay [1] was 71.5 µM; in assay [2] it was 115 µM.

Consider `O=C(c1coc(COc2cccc3cnccc23)n1)N1CCSCC1`, for which the IC50 in assay [1] and in assay [2] was above 50.1 µM each time.

Take `CCOCCSc1nnc(Cc2ccccc2F)o1`: the IC50 in assay [1] was 27.5 µM; in assay [2] it was 33.5 µM.

As to `CN(Cc1cnn(C)c1)C(=O)c1cc(Br)c[nH]1`, the IC50 is above 501 µM in assay [1] and 95.2 µM in assay [2].

As for `Cc1cc2nc(CN)[nH]c2cc1C`, the IC50 in assay [1] was above 501 µM; in assay [2], 148 µM.

`COc1ccc(C)cc1CCN`: the IC50 in assay [1] is 277 µM; in assay [2] it was 272 µM.

For `c1cn(C2CCNCC2)nn1`, the IC50 in assay [1] was 409 µM; in assay [2], 354 µM.

Take `CCOC(=O)c1ccc(CN2CCOCC2)cn1`: the IC50 in assay [1] and in assay [2] was above 501 µM in each case.

For `N[C@H]1CC[C@H](Oc2ncccc2Cl)CC1`, the IC50 in assay [1] was above 501 µM; in assay [2], 125 µM.

For `CCS(=O)(=O)NCC(N)c1ccc(C(C)C)cc1` (stereo unspecified), the IC50 is 211 µM in assay [1] and 85.8 µM in assay [2].

As for `O=C(NC1CCCN(CCCc2ccccc2)C1)c1ccc(Cl)s1` (stereo unspecified), the IC50 in assay [1] was 24.4 µM; in assay [2], 33.6 µM.

Turning to `CN(C(=O)CC1=CCCCC1)C1CCCN(C2Cc3ccccc3C2)C1` (stereo unspecified), the IC50 in assay [1] and in assay [2] was above 50.1 µM throughout.

On to `CNCC(=O)NC(C)c1nc(-c2ccc(Br)cc2)no1` (stereo unspecified), for which the IC50 in assay [1] is 261 µM; in assay [2] it was 197 µM.

With `CCc1ncc(C(=O)N2CCN(c3nccs3)CC2)s1`, the IC50 in assay [1] was above 501 µM; in assay [2] it was 79.4 µM.

Take `N#CC1(NC(=O)CCc2ccc(Cl)s2)CCOCC1`: the IC50 in assay [1] was above 501 µM; in assay [2], 236 µM.

Take `COc1ncccc1CNS(=O)(=O)c1cccc(Cl)c1`: the values for the IC50 in assay [1] and in assay [2] were 311 µM and 230 µM, respectively.

For `Fc1cccc(Cl)c1CNCCOc1ccccn1`, the IC50 in assay [1] and in assay [2] was above 50.1 µM throughout.

Take `OC1CCN(Cc2cc(Cl)c3c(c2)OCCO3)CC1`: the IC50 in assay [1] and in assay [2] was above 501 µM each time.

As for `CNC1CCN(c2cc(OC)cc(OC)c2)C1` (stereo unspecified), the IC50 is 225 µM in assay [1] and 309 µM in assay [2].

For the compound `CC(C)(C)OC(=O)NC1CC2(CNC2)C1`, the IC50 in assay [1] is above 501 µM; in assay [2], 244 µM.

Regarding `CCN(CCC(N)=O)Cc1cccc2c1OCO2`, the IC50 is 272 µM in assay [1] and 258 µM in assay [2].

With `Cc1cc(Br)oc1C(=O)Nc1ncccc1O`, the IC50 in assay [1] was 157 µM; in assay [2], 322 µM.

Consider `Cc1nonc1NC(=O)CCn1cc(Br)ccc1=O`, for which the IC50 in assay [1] and in assay [2] was above 50.1 µM throughout.

On to `CC(C)Oc1ccc(S(=O)(=O)N2CCC(N)C2)cc1` (stereo unspecified), for which the IC50 in assay [1] was above 501 µM; in assay [2], 212 µM.

Turning to `CN(CCc1ccccc1)CCS(=O)(=O)CCC(N)=O`, the values for the IC50 in assay [1] and in assay [2] were 175 µM and 442 µM, respectively.

Take `COc1cccc(C(CO)NC(=O)Cc2ccc(F)c(Br)c2)c1` (stereo unspecified): the IC50 in assay [1] and in assay [2] was above 50.1 µM each time.

For `NCCCc1nc2ccccc2o1`, the IC50 in assay [1] is 255 µM; in assay [2], 211 µM.

On to `Cc1cccc2[nH]cc(CCN)c12`, for which the values for the IC50 in assay [1] and in assay [2] were 229 µM and 124 µM, respectively.

Consider `Fc1cccc(OC2CCN(CCn3cc4ccccc4n3)CC2)c1`, for which the IC50 in assay [1] is 26.1 µM; in assay [2], above 50.1 µM.

With `O=C(NCc1ccc2c(c1)OCCCO2)c1cscn1`, the values for the IC50 in assay [1] and in assay [2] were 111 µM and 107 µM, respectively.

With `COc1cc(C(=O)NCCCc2ccccc2)on1`, the IC50 in assay [1] and in assay [2] was above 50.1 µM in each case.

For `OC(Cn1nnc(-c2ccsc2)n1)CC(F)(F)F` (stereo unspecified), the IC50 in assay [1] was 39.2 µM; in assay [2], 56.5 µM.

As for `COc1ccnc(N2CCCN(c3nc(C4CC4)ns3)CC2)n1`, the IC50 in assay [1] and in assay [2] was above 50.1 µM each time.

In the case of `O=C(NCC(O)c1ccc(Cl)cc1)Nc1ccccn1` (stereo unspecified), the IC50 in assay [1] was above 501 µM; in assay [2], 106 µM.

As to `CCNc1ncc(C(=O)N(C)Cc2ccsc2)cn1`, the IC50 in assay [1] and in assay [2] was above 501 µM throughout.

As for `COCCOC1CCN(c2cccc(C)n2)CC1`, the IC50 is 366 µM in assay [1] and 245 µM in assay [2].

For `CCN1CCN(C(=O)c2ccc(C)c(C)c2)CC1`, the IC50 in assay [1] and in assay [2] was above 501 µM each time.

As for `CCc1ccc(CN2CCN(C(=O)N(C)C)CC2)o1`, the IC50 is above 501 µM in assay [1] and 206 µM in assay [2].

Take `Cn1cnc2c1CCN(c1ccnc(-c3ccccc3)n1)C2`: the IC50 was 38.1 µM in assay [1] and 15.6 µM in assay [2].

For `N#Cc1cccnc1N1CCCNCC1`, the IC50 was above 501 µM in assay [1] and 480 µM in assay [2].

Consider `COc1cccc(CNCCNc2cccc(C)n2)c1`, for which the figures for the IC50 in assay [1] and in assay [2] were above 501 µM and 248 µM, respectively.

As for `Cn1nnnc1SCCOc1cccc(F)c1`, the IC50 in assay [1] was 87.9 µM; in assay [2], 412 µM.

With `CCOc1ccc(N2CCCN=C2NC(=O)c2ccc(Cl)cc2)cc1`, the IC50 in assay [1] and in assay [2] was above 50.1 µM in each case.

In the case of `CCNC(=O)NCCOC(=O)c1cccc2cc[nH]c12`, the IC50 in assay [1] and in assay [2] was above 501 µM throughout.

Consider `FC(F)Sc1ccc(NCc2nnc(C3CC3)o2)cc1`, for which the IC50 in assay [1] was 46.7 µM; in assay [2], 11.8 µM.

On to `c1ccc(-c2cc(CN3C[C@@H]4CC[C@H](C3)N(CC3CC3)C4)on2)cc1`, for which the figures for the IC50 in assay [1] and in assay [2] were 24.8 µM and 24.3 µM, respectively.

Turning to `NC(=O)COc1cc(Cl)cc(Cl)c1`, the figures for the IC50 in assay [1] and in assay [2] were 278 µM and 246 µM, respectively.

`NCC(c1cccs1)N1CCCC1` (stereo unspecified): the IC50 in assay [1] is 494 µM; in assay [2] it was 156 µM.

Regarding `COc1ccc(CCN)c(Cl)c1OC`, the IC50 in assay [1] is above 501 µM; in assay [2] it was 265 µM.

As to `O=S1(=O)CCCN1CCNc1ncc(Cl)cc1Cl`, the IC50 in assay [1] is above 501 µM; in assay [2] it was 111 µM.

For the compound `CSCCOC(=O)c1ccn(C(C)C)n1`, the IC50 is 248 µM in assay [1] and 241 µM in assay [2].

On to `CC(C)n1nnc(CC(=O)NCC2(c3cccc(F)c3)CCCC2)n1`, for which the IC50 in assay [1] and in assay [2] was above 50.1 µM each time.

For the compound `Cc1cccc(-c2ccc(C(=O)NCCN3CCOCC3)c(=O)[nH]2)c1`, the IC50 in assay [1] and in assay [2] was above 50.1 µM throughout.

With `CCCc1nn(Cc2ccc(Br)s2)c(=O)o1`, the figures for the IC50 in assay [1] and in assay [2] were 25.4 µM and 31.8 µM, respectively.

On to `CC(CN)c1nc(-c2ccccc2)no1` (stereo unspecified), for which the IC50 in assay [1] was 410 µM; in assay [2], 179 µM.

On to `Cc1ccc(N2CCN(c3ccccc3C)CC2C)nn1` (stereo unspecified), for which the IC50 in assay [1] and in assay [2] was above 50.1 µM in each case.

For the compound `NCc1ccc(NC(=O)c2ccccc2O)cc1`, the IC50 in assay [1] was above 501 µM; in assay [2] it was 159 µM.

As for `Fc1ccc(Cn2ccnn2)c(Cl)c1`, the IC50 in assay [1] and in assay [2] was above 501 µM throughout.

As to `Cc1ccsc1[C@@H]1CCN(C(=O)CCOc2ccccc2)C[C@H]1O`, the IC50 in assay [1] and in assay [2] was above 50.1 µM in each case.

In the case of `COC(=O)C1CC(c2ccccc2)=NO1` (stereo unspecified), the IC50 in assay [1] and in assay [2] was above 501 µM each time.

For the compound `CC(N)c1nc(-c2ccc(Br)cc2)c[nH]1` (stereo unspecified), the IC50 in assay [1] is 242 µM; in assay [2], 99.7 µM.

With `N#CC1(C(=O)NCc2ccccc2F)CC1`, the IC50 in assay [1] and in assay [2] was above 501 µM in each case.

On to `Cc1csc(N2CCCN(C(=O)c3cnsn3)CC2)n1`, for which the IC50 in assay [1] is above 501 µM; in assay [2] it was 284 µM.

With `COCCCNC(=O)c1ccn(-c2ccc(F)cc2)n1`, the IC50 is 154 µM in assay [1] and 114 µM in assay [2].

Turning to `COc1cccc(CNCc2cccnc2-n2cccn2)c1OC`, the IC50 in assay [1] and in assay [2] was above 50.1 µM each time.

In the case of `COCCN(C)CC1CCCN1S(=O)(=O)c1cccc(F)c1F` (stereo unspecified), the IC50 was above 50.1 µM in assay [1] and 15 µM in assay [2].

For `N#Cc1cccnc1NC1CCN(c2ccccc2OC(F)F)C1=O` (stereo unspecified), the values for the IC50 in assay [1] and in assay [2] were 1.27 µM and above 50.1 µM, respectively.

`Cc1nn2c(NCC(=O)NC3CC3)cc(-c3ccccc3)nc2c1C`: the IC50 in assay [1] was 12.1 µM; in assay [2] it was 13.4 µM.

These data come from ChEMBL document CHEMBL3988442, “University of Dundee, Small-Polar-MMV Screening Library” (2021).
